The values that follow come from patent US6358969B1, “3-desmethylrapamycin or derivatives thereof, processes for their preparation and their use as antifungal agents and immunosuppressants” (SmithKline Beecham p.l.c., priority 1991, dated 2002).

Common to all, as to type: cell-based
The test system of test [1] is Aspergillus niger. The experiment in a line: Spectrum of activity, agar diffusion zones of inhibition. The conditions noted are these: SAB agar, 24 hours, read-out: Zones of inhibition (diameter). How it is done: (§1) Method—The spectrum of activity was determined by placing solutions of the compound, prepared in sodium phosphate buffer, pH 6.6, in wells in seeded Sabouraud's Dextrose Agar. Activity was assessed by measuring the zones of inhibition following incubation at 37° C. (yeasts and Aspergillus niger) or 30° C. (other filamentous fungi) for 24 hours.
On the technique in general: A growth-free zone around the sample is the usual read-out of agar diffusion tests.

Test [2] concerns Candida albicans 73/079. The description is as above. The note with it: SAB agar, 24 hours, read-out: Zones of inhibition (diameter). How it is done:
as §1

Test [3] has as its system Crytococcus neoformans 451. Described as above. The note with it: SAB agar, 24 hours, read-out: Zones of inhibition (diameter). The procedure:
as §1

Test [4] deals with Hendersonula torulides TH65. The test is described as above. The conditions noted are these: SAB agar, 24 hours, read-out: Zones of inhibition (diameter). The procedure: as §1
Test [5] relates to Paecilomyces varioti. Described as above. The note with it: SAB agar, 24 hours, read-out: Zones of inhibition (diameter). The procedure:
as §1

Test [6] concerns Pityrosporum canis 0024RE. The description is as above. The conditions noted are these: SAB agar, 24 hours, read-out: Zones of inhibition (diameter). How it is done: as §1
The test system of test [7] is Rhizopus oryzae 21602. The description is as above. The conditions noted are these: Rhizopus arrhizus, SAB agar, 24 hours, read-out: Zones of inhibition (diameter). How it is done: as §1
In test [8] the test system is Saccharomyces cerevisiae. The test is described as above. The note with it: SAB agar, 24 hours, read-out: Zones of inhibition (diameter). The procedure:
as §1

Test [9] has as its system Trichophyton mentagrophytes 569A. Described as above. The conditions noted are these: SAB agar, 24 hours, read-out: Zones of inhibition (diameter). The procedure:
as §1

For test [10], the system named is Aspergillus niger. Put plainly: Minimal Inhibitory Concentration, broth microtitre dilution. The note with it: 37° C., inoculum 10^4 spores/ml, read-out: Minimum Inhibitory Concentration (MIC). The procedure:
(§2) Method—The Minimal Inhibitory Concentration (MIC) was determined by diluting the compound in a broth medium in a microtitre tray. The organisms were diluted and added to the wells to provide a final inoculum of approximately 10^5 cells per ml or 10^4 fungal spores per ml. The trays were incubated at 37° C. and the turbidity of each well noted at intervals. The (MIC) was taken as the lowest concentration (in mg/ml) which prevented significant growth.

Test [11] relates to Candida albicans 731079. Described as above. The note with it: 37° C., inoculum 10^5 cells/ml, read-out: Minimum Inhibitory Concentration (MIC). How it is done:
as §2

For test [12], the system named is yeasts and filamentous fungi. Put plainly: Agar diffusion test, overall spectrum of activity. The conditions noted are these: summary of Table 1. How it is done: as §1
Test [13] has as its system Candida albicans. Put plainly: Antifungal activity (stated characteristic of the compound).

In brackets after ≈: the same amount, converted by molar mass. Like-named read-outs stand apart in the source and are kept apart here.

As to `COC1CC2CCC(C)C(O)(O2)C(=O)C(=O)N2CCCCC2C(=O)OC(C(C)CC2CCC(O)C(OC)C2)CC(=O)C(C)/C=C(\C)C(O)C(O)C(=O)C(C)CC(C)/C=C/C=C/C=C/1C` (stereo not drawn), the zone of inhibition at 100 µg/mL in test [1] (CONC 100 μg/ml) came out at 46 mm; in test [2] (CONC 100 μg/ml), 29 mm; in test [3] (CONC 100 μg/ml), 29 mm; in test [4] (CONC 100 μg/ml), 33 mm; in test [5] (CONC 100 μg/ml), 26 mm; in test [6] (CONC 100 μg/ml), 0 mm. For the same compound, the zone of inhibition at 100 µg/mL in test [7] (CONC 100 μg/ml) was determined as 46 mm; in [8] (CONC 100 μg/ml) it was 34 mm; in test [9] (CONC 100 μg/ml), 42 mm. Besides, the zone of inhibition at 500 µg/mL in test [1] (CONC 500 μg/ml) turned out to be 47 mm; in [2] (CONC 500 μg/ml), 29 mm; in test [3] (CONC 500 μg/ml) it was 29 mm; in test [4] (CONC 500 μg/ml) it was 36 mm; in [5] (CONC 500 μg/ml), 28 mm; in test [6] (CONC 500 μg/ml), 0 mm. The zone of inhibition at 500 µg/mL in [7] (CONC 500 μg/ml) is 47 mm; in [8] (CONC 500 μg/ml) it was 33 mm; in [9] (CONC 500 μg/ml), 43 mm. In addition, the MIC in [10] (24 h, day 1 of incubation) is 16 µg/mL (≈ 17.8 µM); in test [10] (48 h, day 2 of incubation) it was 32 µg/mL (≈ 35.5 µM); in test [11] (Candida albicans, 731079, 24 h, day 1 of incubation), 32 µg/mL (≈ 35.5 µM); in test [11] (Candida albicans, 731079, 48 h, day 2 of incubation), 32 µg/mL (≈ 35.5 µM). For the same compound, the “Spectrum of activity in the agar diffusion test” value in test [12] is “broad spectrum activity”. For the same compound, the “Antifungal activity against Candida albicans” value in test [13] was “shows antifungal activity”.
